Laboratory results: patent publication US4857537A, “Novel thiazolidine derivatives” (Ono Pharmaceutical Co., Ltd., priority 1987, dated 1989)
Like-named read-outs stand apart in the source and are kept apart here. Square brackets hold non-standard residues; d marks the D form. Peptide text beside a SMILES is read from it. * marks the point of attachment. ξ: configuration not given here. Hydrocinnamoyl = O=C(CCc1ccccc1)*; Thz = O=C(O)[C@@H]1CSCN1; Cbz = O=C(OCc1ccccc1)*; ξPip = O=C(O)C1CCCCN1; CH2Cl = ClC*

What was measured:
[1] = biological target: T1, prolyl endopeptidase (Bos taurus, UniProt Q9XTA2); experiment: Prolyl endopeptidase inhibitory activity in vitro; format: biochemical, bovine
T1 construct: purified from bovine brain; from tissue; host or cells: bovine brain
T1 sequence (Q9XTA2 whole entry): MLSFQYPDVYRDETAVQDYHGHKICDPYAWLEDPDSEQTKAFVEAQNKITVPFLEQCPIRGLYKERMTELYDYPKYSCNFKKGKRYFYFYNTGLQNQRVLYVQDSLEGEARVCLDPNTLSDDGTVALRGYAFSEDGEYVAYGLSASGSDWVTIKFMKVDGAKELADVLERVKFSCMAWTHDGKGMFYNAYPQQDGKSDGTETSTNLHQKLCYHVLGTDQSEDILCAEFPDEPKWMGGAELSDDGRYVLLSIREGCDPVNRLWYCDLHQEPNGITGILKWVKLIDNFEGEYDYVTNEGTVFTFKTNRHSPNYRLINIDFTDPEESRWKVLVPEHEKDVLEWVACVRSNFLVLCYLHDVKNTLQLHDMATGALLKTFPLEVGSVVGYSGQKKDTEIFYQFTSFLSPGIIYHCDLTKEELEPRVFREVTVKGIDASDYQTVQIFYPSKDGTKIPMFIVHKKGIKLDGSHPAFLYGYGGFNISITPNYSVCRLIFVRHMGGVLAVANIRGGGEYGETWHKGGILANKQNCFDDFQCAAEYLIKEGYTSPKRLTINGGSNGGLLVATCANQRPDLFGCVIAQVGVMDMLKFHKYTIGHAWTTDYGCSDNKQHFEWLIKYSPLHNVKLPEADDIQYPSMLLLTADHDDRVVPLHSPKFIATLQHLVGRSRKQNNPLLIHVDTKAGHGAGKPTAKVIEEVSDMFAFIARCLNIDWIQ
Procedure: Inhibitory activity of prolyl endopeptidase in vitro was measured by the following test system.
A mixed solution of 20 mM tris-HCl buffer (pH 7.5; 935 μl; containing 10 mM EDTA and 10 mM mercaptoethanol), a solution of a compound of the present invention in DMSO (10 μl) and a solution of prolyl endopeptidase which was purified from bovine brain (0.13 unit; prepared by the method described in J. Biochem., 94, 1179 (1983)) in tris-HCl buffer (15 μl) was preincubated for 15 mins at 37° C.
To the solution, 5 mM of N-benzyloxycarbonyl-glycyl-prolyl-p-nitroanilide (40 μl) in a mixture of 40% dioxane--60% water was added. Ths solution was incubated for 1 min at the same temperature.
Optical absorption (a1) at 405 nm of the solution, and optical absorption (a2) at 405 nm of the solution after more 30 mins' incubation at 37° C. were measured.
Optical absorptions (b1 and b2) of the solutions using DMSO instead of the solution of the compound of the present invention were also measured.
Inhibitory ratio was calculated by the following expression and IC50 (required concentration for 50% inhibition) was obtained (See Protein, Nucleic acid and Enzyme 25(6), 513, 1980.). [formula]

[2] = tested on: prolyl endopeptidase; conditions: See J. Neurochem., 41, 69(1983); cited from earlier work
[3] = in vitro, purified from bovine brain, pH 7.5, 37° C., substrate N-benzyloxycarbonyl-glycyl-prolyl-p-nitroanilide, 405 nm, read-out: Concentration for 50% inhibition IC50

O=C[C@@H]1CSCN1C(=O)CCCCCCCCCc1ccccc1 [1 (b), (4R)3-(10-phenyldecanoyl) thiazolidin-4-al]
IC50 [1, 3]: 730 nM

O=C[C@@H]1CSCN1C(=O)C1CCC[C@H]1C(=O)CCc1ccccc1 (stereo partly drawn) [1 (l), (4R)3-[(2R)2-(3-phenylpropionyl)cyclopentanecarbonyl]thiazolidin-4-al]
IC50 [1, 3]: 22 nM

COc1ccc(CNC(=O)CCC(=O)N2CSC[C@H]2C=O)cc1 [1 (t), (4R)3-[3-[N(4-methoxybenzyl)carbamoyl]propionyl]thiazolidin-4-al]
IC50 [1, 3]: 35 nM

O=C(NCC(=O)N1CCC[C@H]1C(=O)CCl)OCc1ccccc1 [N-benzyloxycarbonyl-glycyl-L-prolyl-chloromethane] (Cbz-Gly-Pro-CH2Cl)
inhibition of prolyl endopeptidase (in words) [2]: strongly inhibit

O=C[C@@H]1CSCN1C(=O)CCC(=O)CCCc1ccccc1 [1 (k), (4R)3-(4-oxo-7-phenylheptanoyl) thiazolidin-4-al]
IC50 [1, 3]: 16 nM

CC(C)C(NC(=O)CCCc1ccccc1)C(=O)N1CSC[C@H]1C=O (stereo partly drawn) [1 (q), (4R)3-[2-(4-phenylbutyrylamino)-3-methylbutyryl]thiazolidin-4-al]
IC50 [1, 3]: 5.7 nM

O=C[C@@H]1CSCN1C(=O)CCCOCc1ccccc1 [1 (i), (4R)3-(4-benzyloxybutyryl) thiazolidin-4-al]
IC50 [1, 3]: 8100 nM

O=C[C@@H]1CSCN1C(=O)C1CCCC1C(=O)NCc1ccccc1 (stereo partly drawn) [1 (v), (4R)3-[2-[Nbenzylcarbamoyl)cyclopentanecarbonyl]thiazolidin-4-al]
IC50 [1, 3]: 83 nM

O=C[C@@H]1CSCN1C(=O)/C=C/c1ccc(CCCCCc2ccccc2)cc1 [1 (g), (4R)3-[4-(5-phenylpentyl)cinnamoyl]thiazolidin-4-al]
IC50 [1]: 4800 nM

O=C[C@@H]1CSCN1C(=O)C1CCCCN1C(=O)CCc1ccccc1 (stereo partly drawn) [1 (n), (4R)3-[1-(3-phenylpropionyl)piperidine-2-carbonyl]thiazolidin-4-al] (Hydrocinnamoyl-[ξPip]-[Thz]-aldehyde)
IC50 [1, 3]: 20 nM

CC(C)C(CCCCCc1ccccc1)C(=O)N1CSC[C@H]1C=O (stereo partly drawn) [1 (c), (4R)3-(2-isopropyl-7-phenylheptanoyl)thiazolidin-7-al]
IC50 [1, 3]: 87 nM

O=C[C@@H]1CSCN1C(=O)CCC(=O)N(Cc1ccccc1)c1ccccc1 [1 (s), (4R)3-[3-(Nbenzyl-Nphenylcarbamoyl)propionyl]thiazolidin-4-al]
IC50 [1, 3]: 6.8 nM
